Data on one molecule can be found in article PMC5689723, “Targeting aggressive prostate cancer-associated CD44v6 using phage display selected peptides” (Oncotarget, 2017).

The assay relates to v6A3 cells. As to the kind of experiment: MTT assay, v6A3 cells. It counts as cell-based. The settings on record: Homo sapiens, PC-3M, 48 h, 5000 cells per well, triplicate, 562 nm, after continuous passage for one month, P< 0.05 vs PC3M, read-out: DOX IC50 of v6A3. Background: Tetrazolium assays rely on reduction of a dye to a coloured formazan, in cell work by metabolically active cells.

For orientation: IC50 means the midpoint of a concentration-inhibition curve.

For the molecule `COc1cccc2c1C(=O)c1c(O)c3c(c(O)c1C2=O)C[C@@](O)(C(=O)CO)C[C@@H]3O[C@H]1C[C@H](N)[C@H](O)[C@H](C)O1` [DOX, doxorubicin], the IC50 turned out to be 140 nM.
